{
  "source": "paper PMC6260619",
  "about": "“Selective Cytotoxicity of Goniothalamin against Hepatoblastoma HepG2 Cells” (Molecules, 2011)",
  "type_in_all_cases": "cell-based, human",
  "key": {"Chang cells [1]": {"system": "Chang cells", "test": "LDH leakage assay, Chang", "conditions": "for IC50: read-out: IC50 from LDH", "method": "(§1) Measurement of LDH activity is another indicator of cell viability through evaluation of the cell membrane permeability. The enzyme activity is measured externally, as it leaks from dead cells which lose their membrane integrity. LDH leakage detection is based on the loss of NADH due to its oxidation to NAD^+, resulting in the conversion of pyruvate to lactate. Untreated cells should retain LDH in their cells and have minimal loss over the time of the assay. Triton X-100-treated cells that give the maximum loss of LDH were used as the positive control in this assay.\n(§2) To determine the effect of goniothalamin on membrane permeability in HepG2 and Chang cell lines, a lactate dehydrogenase (LDH) release assay was used. The cells were seeded in 96-well culture plates at a density of 2 × 10^4 cells/well in 100 μL volume and allowed to grow for 18 hours before treatment. After treatment, the plates were incubated for 24, 48 and 72 hours, respectively. Then, the supernatant (40 μL) was transferred to a new 96 well to determine LDH release and 6% triton X-100 (40 μL) was added to the original plate for determination of total LDH. An aliquot of 0.1 M potassium phosphate buffer (100 μL, pH 7.5) containing 4.6 mM pyruvic acid was mixed to the supernatant using repeated pipetting. Then, 0.1 M potassium phosphate buffer (100 μL, pH 7.5) containing 0.4 mg/mL reduced β-NADH was added to the wells. The kinetic changes were read for 1 min using ELISA microplate reader in absorbance at wavelength 340 nm. This procedure was repeated with 40 μL of the total cell lysate to determine total LDH U/well. A change of 0.001 absorbance units/min is equivalent to 1 U/L of LDH activity. The percentage of LDH release was determined by dividing the LDH released into the media by the total LDH following cell lysis in the same well."}, "HepG2 cells [2]": {"system": "HepG2 cells", "test": "MTT cytotoxicity assay, HepG2", "conditions": "for IC50: read-out: IC50 from MTT", "method": "(§3) HepG2 and Chang cells were plated at 1 × 10^4 cells/well by adding 200 μL of a 5 × 10^4 cells/mL suspension to each well of a 96-well tissue culture plate. The plate was incubated for a sufficient time to assure attachment and 40% to 60% confluency. […] The last row was left as an untreated control. The plates were incubated at 37 °C, 5% CO2, for 24, 48 and 72 hours, respectively. After incubation with compounds, the media was aspirated off and replaced with fresh media. Then, MTT solution (20 μL) for a total volume of 200 μL was added in every well and incubated for 4 to 6 hours at 37 °C with 5% CO2. After that, MTT-containing medium was removed gently and replaced with DMSO (200 μL per well) to mix the formazan crystals until dissolved. The plates were read on microtiter plate reader at 570 nm. For each compound tested, the IC50 (concentration of drug needed to inhibit cell growth by 50%) is generated from the dose-response curves for each cell line."}, "Chang cells [3]": {"system": "Chang cells", "test": "BrdU cell proliferation ELISA, Chang", "method": "The inhibition of goniothalamin on cellular DNA synthesis in Chang cells was also measured by BrdU incorporation.\nTo confirm anti-proliferative effects in goniothalamin-treated cells, BrdU cell proliferation kit was used. HepG2 and Chang cells were seeded at 1.5 × 10^5 cells/mL in a final volume of 100 μL in a 96-well culture dish and incubated overnight to allow the cells to adhere to the dish. Each sample was assayed in triplicate. Besides, the control samples include a blank (no cells) and background (cells without BrdU) was also prepared. […] Then, BrdU label (20 μL, diluted by 1/2,000 in media) was added to each well and incubated for 24 h at 37 °C. The media was discarded and replaced by fix/denaturing solution (200 μL). The plate was incubated for 30 min at room temperature. The fix/denaturing solution was removed by inverting the plate. Then, BrdU antibody (100 μL, diluted by 1/100 in dilution buffer) was added to each well and left for 1 hour at room temperature. The cells were washed 3 times with wash buffer. After that, secondary antibody (100 μL, anti-mouse IgG HRP conjugated) was added to each well for 30 min. The washing step was done three times with wash buffer and once with distilled water. The distilled water was removed and substrate solution (100 μL) was added to each well. The plate was left for 15 min at room temperature in the dark condition. Finally, stop solution (100 μL) was added to the wells and absorbance measured at 450–540 nm."}, "Chang cells [4]": {"system": "Chang cells", "test": "MTT cytotoxicity assay, Chang", "conditions": "for IC50: read-out: IC50 from MTT", "method": "as §3"}, "HepG2 cells [5]": {"system": "HepG2 cells", "test": "LDH leakage assay, HepG2", "conditions": "for IC50: Homo sapiens, read-out: IC50 from LDH", "method": "as §1, §2"}},
  "note": "“And” between values parts separate entries of the source, which are not always exact repeats. Identical values can stand only once.",
  "data": [
    {"smiles": "O=C1C=CC[C@H](/C=C/c2ccccc2)O1", "note": "[Goniothalamin, 5-hydroxy-7-phenylhepta-2,6-dienoic acid lactone]", "values": [
      {"measurement": "increase in LDH leakage", "setting": "Chang cells [1]; Chang, 4.7 µM, 72 hours", "result": 19, "unit": "%"},
      {"measurement": "loss of viability (LDH leakage)", "setting": "Chang cells [1]; Chang, 37.5 µM", "result": "≤ 52", "unit": "%"},
      {"measurement": "toxicity (LDH leakage)", "setting": "Chang cells [1]; Chang, 2.3, 4.7 or 9.4 µM, on completion of incubation", "result": "no significant toxicity"},
      {"measurement": "IC50", "setting": "Chang cells [1]; Chang, 72 hours", "result": 32.5, "unit": "µM"},
      {"measurement": "IC50", "setting": "Chang cells [1]; Homo sapiens, 24 h, Chang, 24 hours", "result": 69.6, "unit": "µM"},
      {"measurement": "IC50", "setting": "Chang cells [1]; Homo sapiens, 48 h, Chang, 48 hours", "result": 55.1, "unit": "µM"},
      {"measurement": "IC50", "setting": "Chang cells [1]; Homo sapiens, 72 h, Chang, 72 hours", "result": 32.5, "unit": "µM"},
      {"measurement": "IC50", "setting": "HepG2 cells [2]; HepG2, 72 hours", "result": "4.6 µM and 4.63 µM"},
      {"measurement": "IC50", "setting": "HepG2 cells [2]; Homo sapiens, HepG2, 24 h", "result": 9.2, "unit": "µM"},
      {"measurement": "IC50", "setting": "HepG2 cells [2]; Homo sapiens, HepG2, 48 h", "result": 8.3, "unit": "µM"},
      {"measurement": "selectivity index (SI)", "setting": "HepG2 cells [2]; IC50 for normal cell line (Chang)/IC50 for cancerous cell line (HepG2), MTT, 72 hours", "result": 7.6},
      {"measurement": "IC50-GTN / IC50-Doxo", "setting": "HepG2 cells [2]; MTT, 72 hours, value fits HepG2 IC50s", "result": 4.4},
      {"measurement": "percentage of cells incorporating BrdU in comparison with untreated cells", "setting": "Chang cells [3]; IC50, 24 hours", "result": 62.4, "unit": "%"},
      {"measurement": "percentage of cells incorporating BrdU in comparison with untreated cells", "setting": "Chang cells [3]; IC50, 72 hours", "result": 23.5, "unit": "%"},
      {"measurement": "decrease in cell proliferation compared to untreated cells (BrdU)", "setting": "Chang cells [3]; lowest concentration (2.3 µM), 72 hours", "result": 2, "unit": "%"},
      {"measurement": "cell proliferation retained (BrdU)", "setting": "Chang cells [3]; lowest concentration (2.3 µL as printed), 72 hours", "result": 97.6, "unit": "%"},
      {"measurement": "decrease of cell growth vs untreated control", "setting": "Chang cells [4]; 37.5 μM, 24 hours", "result": 39, "unit": "%"},
      {"measurement": "decrease of cell growth vs untreated control", "setting": "Chang cells [4]; 37.5 μM, 48 hours", "result": 44, "unit": "%"},
      {"measurement": "decrease of cell growth vs untreated control", "setting": "Chang cells [4]; 37.5 μM, 72 hours", "result": 54, "unit": "%"},
      {"measurement": "decrease of cell growth vs untreated control", "setting": "Chang cells [4]; 75 μM, 24 hours", "result": "approximately 49%"},
      {"measurement": "decrease of cell growth vs untreated control", "setting": "Chang cells [4]; 75 μM, 48 hours", "result": "~53", "unit": "%"},
      {"measurement": "decrease of cell growth vs untreated control", "setting": "Chang cells [4]; 75 μM, 72 hours", "result": "~63", "unit": "%"},
      {"measurement": "IC50", "setting": "Chang cells [4]; 72 hours", "result": 35, "unit": "µM"},
      {"measurement": "IC50", "setting": "Chang cells [4]; Homo sapiens, 24 h", "result": 79.1, "unit": "µM"},
      {"measurement": "IC50", "setting": "Chang cells [4]; Homo sapiens, 48 h", "result": 63.8, "unit": "µM"},
      {"measurement": "IC50", "setting": "Chang cells [4]; Homo sapiens, 72 h", "result": 35, "unit": "µM"},
      {"measurement": "death percentage compared to Triton X-100-treated cells", "setting": "HepG2 cells [5]; HepG2, 4.6 µM, 72 hours", "result": 50, "unit": "%"},
      {"measurement": "LDH leakage", "setting": "HepG2 cells [5]; HepG2, 9.4 µM, 72 hours, relative to Triton X-100 maximum", "result": 62, "unit": "%"},
      {"measurement": "LDH leakage", "setting": "HepG2 cells [5]; HepG2, 37.5 µM, 24 hours", "result": 60, "unit": "%"},
      {"measurement": "LDH leakage", "setting": "HepG2 cells [5]; HepG2, 37.5 µM, 48 hours", "result": 70, "unit": "%"},
      {"measurement": "LDH leakage", "setting": "HepG2 cells [5]; HepG2, 37.5 µM, 72 hours", "result": 70, "unit": "%"},
      {"measurement": "LDH leakage", "setting": "HepG2 cells [5]; HepG2, 150 µM, 24 hours", "result": 80, "unit": "%"},
      {"measurement": "LDH leakage", "setting": "HepG2 cells [5]; HepG2, 150 µM, 48 hours", "result": 86, "unit": "%"},
      {"measurement": "LDH leakage", "setting": "HepG2 cells [5]; HepG2, 150 µM, 72 hours", "result": 93, "unit": "%"},
      {"measurement": "IC50", "setting": "HepG2 cells [5]; HepG2, 24 hours", "result": 13.4, "unit": "µM"},
      {"measurement": "IC50", "setting": "HepG2 cells [5]; HepG2, 48 hours", "result": 8.29, "unit": "µM"},
      {"measurement": "IC50", "setting": "HepG2 cells [5]; HepG2, 72 hours", "result": 5.2, "unit": "µM"}
    ]}
  ]
}
